According to the supplement of paper PMC10307832:

What was measured:
Assay in all cases: relative viability (nuclei count vs DMSO), 5 days (fraction); higher = more cells survive
NCI-H1563 = tested on: NCI-H1563
Outline: (§1)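 Dosing by pin tool came one day after lung cancer cell lines were seeded in 1536-well plates, using either one drug or a fixed anchor-drug dose plus five library-drug doses (not always all listed) in √10 steps. After 5 days, nuclei were counted on 4× images. Relative viability is treated-well nuclei count divided by vehicle-well nuclei count, and values are medians of duplicate plates.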

H3255 = tested on: H3255
Outline: as §1

NCI-H1993 = tested on: NCI-H1993
Outline: as §1

201T = tested on: 201T
Outline: as §1

NCI-H2085 = tested on: NCI-H2085
Outline: as §1

NCI-H1650 = tested on: NCI-H1650
Outline: as §1

EPLC-272H = tested on: EPLC-272H
Outline: as §1

LOU-NH91 = tested on: LOU-NH91
Outline: as §1

NCI-H2170 = tested on: NCI-H2170
Outline: as §1

RERF-LC-KJ = tested on: RERF-LC-KJ
Outline: as §1

PC-14 = tested on: PC-14
Outline: as §1

NCI-H520 = tested on: NCI-H520
Outline: as §1

NCI-H647 = tested on: NCI-H647
Outline: as §1

NCI-H2023 = tested on: NCI-H2023
Outline: as §1

SW 900 = tested on: SW 900
Outline: as §1

NCI-H1734 = tested on: NCI-H1734
Outline: as §1

NCI-H2347 = tested on: NCI-H2347
Outline: as §1

NCI-H3122 = tested on: NCI-H3122
Outline: as §1

NCI-H2405 = tested on: NCI-H2405
Outline: as §1

NCI-H1793 = tested on: NCI-H1793
Outline: as §1

NCI-H441 = tested on: NCI-H441
Outline: as §1

COR-L23 = tested on: COR-L23
Outline: as §1

O=C(O)c1ccc(-c2c[nH]c3ncc(-c4ccccc4)cc23)cc1C1CCCC1 + Cc1nc(Nc2ncc(C(=O)Nc3c(C)cccc3Cl)s2)cc(N2CCN(CCO)CC2)n1 [Dasatinib] (partner 0.075 µM)
relative viability (NCI-H1563; first compound 0.04 µM): 0.455 | relative viability (NCI-H1563; first compound 0.1265 µM): 0.514 | relative viability (NCI-H1563; first compound 0.4 µM): 0.48 | relative viability (NCI-H1563; first compound 1.265 µM): 0.48 | relative viability (H3255; first compound 0.04 µM): 0.378 | relative viability (H3255; first compound 0.1265 µM): 0.6 | relative viability (H3255; first compound 0.4 µM): 0.348 | relative viability (H3255; first compound 1.265 µM): 0.473 | relative viability (NCI-H1993; first compound 0.04 µM): 0.592 | relative viability (NCI-H1993; first compound 0.1265 µM): 0.568 | relative viability (NCI-H1993; first compound 0.4 µM): 0.601 | relative viability (NCI-H1993; first compound 1.265 µM): 0.572 | relative viability (201T; first compound 0.04 µM): 0.58 | relative viability (201T; first compound 0.1265 µM): 0.599 | relative viability (201T; first compound 0.4 µM): 0.523 | relative viability (201T; first compound 1.265 µM): 0.534 | relative viability (NCI-H2085; first compound 0.04 µM): 0.259 | relative viability (NCI-H2085; first compound 0.1265 µM): 0.268 | relative viability (NCI-H2085; first compound 0.4 µM): 0.307 | relative viability (NCI-H2085; first compound 1.265 µM): 0.247 | relative viability (NCI-H1650; first compound 0.04 µM): 0.312 | relative viability (NCI-H1650; first compound 0.1265 µM): 0.357 | relative viability (NCI-H1650; first compound 0.4 µM): 0.37 | relative viability (NCI-H1650; first compound 1.265 µM): 0.308 | relative viability (EPLC-272H; first compound 0.04 µM): 0.331 | relative viability (EPLC-272H; first compound 0.1265 µM): 0.416 | relative viability (EPLC-272H; first compound 0.4 µM): 0.328 | relative viability (EPLC-272H; first compound 1.265 µM): 0.337 | relative viability (LOU-NH91; first compound 0.04 µM): 0.573 | relative viability (LOU-NH91; first compound 0.1265 µM): 0.667 | relative viability (LOU-NH91; first compound 0.4 µM): 0.508 | relative viability (LOU-NH91; first compound 1.265 µM): 0.577 | relative viability (NCI-H2170; first compound 0.04 µM): 0.522 | relative viability (NCI-H2170; first compound 0.1265 µM): 0.623 | relative viability (NCI-H2170; first compound 0.4 µM): 0.529 | relative viability (NCI-H2170; first compound 1.265 µM): 0.564 | relative viability (RERF-LC-KJ; first compound 0.04 µM): 0.758 | relative viability (RERF-LC-KJ; first compound 0.1265 µM): 0.778 | relative viability (RERF-LC-KJ; first compound 0.4 µM): 0.783 | relative viability (RERF-LC-KJ; first compound 1.265 µM): 0.687 | relative viability (PC-14; first compound 0.04 µM): 0.245 | relative viability (PC-14; first compound 0.1265 µM): 0.258 | relative viability (PC-14; first compound 0.4 µM): 0.281 | relative viability (PC-14; first compound 1.265 µM): 0.286 | relative viability (NCI-H520; first compound 0.04 µM): 0.199 | relative viability (NCI-H520; first compound 0.1265 µM): 0.203 | relative viability (NCI-H520; first compound 0.4 µM): 0.253 | relative viability (NCI-H520; first compound 1.265 µM): 0.222 | relative viability (NCI-H647; first compound 0.04 µM): 0.172 | relative viability (NCI-H647; first compound 0.1265 µM): 0.24 | relative viability (NCI-H647; first compound 0.4 µM): 0.178 | relative viability (NCI-H647; first compound 1.265 µM): 0.139 | relative viability (NCI-H2023; first compound 0.04 µM): 0.575 | relative viability (NCI-H2023; first compound 0.1265 µM): 0.738 | relative viability (NCI-H2023; first compound 0.4 µM): 0.603 | relative viability (NCI-H2023; first compound 1.265 µM): 0.515 | relative viability (SW 900; first compound 0.04 µM): 0.577 | relative viability (SW 900; first compound 0.1265 µM): 0.712 | relative viability (SW 900; first compound 0.4 µM): 0.584 | relative viability (SW 900; first compound 1.265 µM): 0.52 | relative viability (NCI-H1734; first compound 0.04 µM): 0.502 | relative viability (NCI-H1734; first compound 0.1265 µM): 0.437 | relative viability (NCI-H1734; first compound 0.4 µM): 0.468 | relative viability (NCI-H1734; first compound 1.265 µM): 0.409 | relative viability (NCI-H2347; first compound 0.04 µM): 0.275 | relative viability (NCI-H2347; first compound 0.1265 µM): 0.799 | relative viability (NCI-H2347; first compound 0.4 µM): 0.298 | relative viability (NCI-H2347; first compound 1.265 µM): 0.299 | relative viability (NCI-H3122; first compound 0.04 µM): 0.927 | relative viability (NCI-H3122; first compound 0.1265 µM): 0.858 | relative viability (NCI-H3122; first compound 0.4 µM): 0.766 | relative viability (NCI-H3122; first compound 1.265 µM): 0.812 | relative viability (NCI-H2405; first compound 0.04 µM): 0.207 | relative viability (NCI-H2405; first compound 0.1265 µM): 0.253 | relative viability (NCI-H2405; first compound 0.4 µM): 0.191 | relative viability (NCI-H2405; first compound 1.265 µM): 0.191 | relative viability (NCI-H1793; first compound 0.04 µM): 0.376 | relative viability (NCI-H1793; first compound 0.1265 µM): 0.473 | relative viability (NCI-H1793; first compound 0.4 µM): 0.373 | relative viability (NCI-H1793; first compound 1.265 µM): 0.342 | relative viability (NCI-H441; first compound 0.04 µM): 0.737 | relative viability (NCI-H441; first compound 0.1265 µM): 0.521 | relative viability (NCI-H441; first compound 0.4 µM): 0.575 | relative viability (NCI-H441; first compound 1.265 µM): 0.473 | relative viability (COR-L23; first compound 0.04 µM): 0.485 | relative viability (COR-L23; first compound 0.1265 µM): 0.578 | relative viability (COR-L23; first compound 0.4 µM): 0.469 | relative viability (COR-L23; first compound 1.265 µM): 0.3
